Measured values from the CheMixHub viscosity set.

Assay: xn = mol fraction of the nth substance listed

NC1CCCCC1 + CS(C)=O
303.15 K, 101 kPa
Conditions	viscosity [mPa·s]
x2 = 0.1	1.571
x2 = 0.1807	1.518
x2 = 0.2707	1.481
x2 = 0.3707	1.467
x2 = 0.4679	1.47
x2 = 0.5654	1.497
x2 = 0.6703	1.542
x2 = 0.7894	1.611
x2 = 0.8913	1.692

O=C(CO)[C@@H](O)[C@H](O)[C@H](O)CO + CS(C)=O
viscosity [mPa·s], 101 kPa
Conditions	x1 = 0.04904	x1 = 0.07411	x1 = 0.106	x1 = 0.1269	x1 = 0.151	x1 = 0.1722	x1 = 0.1979	x1 = 0.2243
298.15 K	3.98	6.037	10.34	14.99	23.48	35.39	59.46	104.7
308.15 K	3.096	4.529	7.33	10.21	15.13	21.64	34.14	55.88
318.15 K	2.48	3.507	5.442	7.283	10.35	14.17	21.19	32.62

O=C(CO)[C@@H](O)[C@H](O)[C@H](O)CO + C[N+](C)(C)CCO.[Cl-]
100 kPa, x2 = 0.6
Conditions	viscosity [mPa·s]
313.2 K	1645
318.2 K	1057

Cc1ccccn1 + Cc1ccccc1
viscosity [mPa·s], 101 kPa
Conditions	x2 = 0.2	x2 = 0.4	x2 = 0.6	x2 = 0.8
293.15 K	0.76	0.714	0.668	0.624
313.15 K	0.593	0.558	0.525	0.494

NC1CCCCC1 + Cc1ccccc1
303.15 K, 101 kPa
Conditions	viscosity [mPa·s]
x2 = 0.1242	1.381
x2 = 0.2292	1.177
x2 = 0.3268	1.013
x2 = 0.4121	0.8791
x2 = 0.5347	0.7115
x2 = 0.6445	0.6079
x2 = 0.7365	0.5443
x2 = 0.8431	0.4838
x2 = 0.922	0.4617

ClC=C(Cl)Cl + ClC(Cl)(Cl)Cl
303.15 K, 101.33 kPa
Conditions	viscosity [mPa·s]
x1 = 0.2969	0.699
x1 = 0.7481	0.555
x1 = 0.7605	0.551
x1 = 0.8498	0.539
x1 = 0.9286	0.526

ClC=C(Cl)Cl + ClC(Cl)Cl
303.15 K, 101.33 kPa
Conditions	viscosity [mPa·s]
x1 = 0.1451	0.517
x1 = 0.2431	0.521
x1 = 0.3368	0.521
x1 = 0.4687	0.521
x1 = 0.5793	0.519
x1 = 0.6718	0.519
x1 = 0.7912	0.519
x1 = 0.868	0.518
x1 = 0.9526	0.518

O=C1CCCC1 + Clc1ccccc1
298.15 K, 101 kPa
Conditions	viscosity [mPa·s]
x2 = 0.0165	1.122
x2 = 0.0498	1.117
x2 = 0.1006	1.108
x2 = 0.1542	1.097
x2 = 0.2087	1.084
x2 = 0.266	1.068
x2 = 0.3245	1.05
x2 = 0.3841	1.023
x2 = 0.4488	0.993
x2 = 0.5148	0.959
x2 = 0.5836	0.92
x2 = 0.6542	0.882
x2 = 0.739	0.835
x2 = 0.8057	0.802
x2 = 0.8869	0.769
x2 = 0.9704	0.745

C1COCCN1 + NCCO
viscosity [mPa·s], 101 kPa
Conditions	293.15 K	303.15 K	313.15 K	323.15 K
x1 = 0.06557	20.7	–	–	–
x1 = 0.06901	–	–	8.726	–
x1 = 0.07	21.21	13.58	8.71	6.21
x1 = 0.2	14.61	9.65	6.44	4.68
x1 = 0.2273	–	–	6.709	–
x1 = 0.2293	14.65	–	–	–
x1 = 0.4	9.19	6.31	4.57	3.36
x1 = 0.4108	–	–	4.506	–
x1 = 0.4137	9.258	–	–	–
x1 = 0.6	5.53	3.97	2.94	2.24
x1 = 0.616	5.651	–	–	–
x1 = 0.6175	–	–	3.337	–
x1 = 0.8608	3.673	–	–	–
x1 = 0.8622	–	–	2.454	–
x1 = 0.9	3.22	2.54	1.98	1.61

O=C1CCCC1 + Nc1cccc(Cl)c1
viscosity [mPa·s], 100 kPa
Conditions	x2 = 0.0805	x2 = 0.1814	x2 = 0.2804	x2 = 0.3815	x2 = 0.4998	x2 = 0.5995	x2 = 0.6995	x2 = 0.7875	x2 = 0.9071
303.15 K	1.111	1.291	1.493	1.731	2.058	2.379	2.752	3.127	3.719
308.15 K	1.047	1.211	1.395	1.611	1.903	2.19	2.521	2.852	3.373
313.15 K	0.9683	1.117	1.282	1.474	1.734	1.987	2.278	2.568	3.023
318.15 K	0.9063	1.039	1.185	1.354	1.58	1.799	2.049	2.296	2.681
